The source of these data is patent US6916812B2, “Alpha-aminoamide derivatives as melanocortin agonists” (Bristol-Myers Squibb Company, priority 2001, dated 2005).

Read-outs that look alike come from different tables or passages of the source.

The target in this assay is T1, cloned human MC4R (Homo sapiens, UniProt P32245).
T1 construct: made in house; host or cells: Hi5 insect cells (baculovirus infection); membrane preparation
Nature of the assay: Membrane binding assay: competitive inhibition of [125I]NDP-α-MSH binding. Conditions: for inhibition at 10 µM: read-out: Displacement Rate (%) (at 10 μM); for IC50: read-out: MC4R IC50. How it is done:
Hi5 cells are infected using the following protocol: Cells at a density of 1×10^6 cells/mL are spun down at 1000 rpm (Beckman GS-6KR centrifuge) for 10 minutes. Cells are resuspended in 10% of their original volume in a sterile 50 mL conical centrifuge tube wrapped with aluminum foil. Virus is added at a Multiplicity of Infection (MOI) of 3 and incubated for 1 hour at room temperature with gentle shaking. […] Cells are spun down in 50 mL conical centrifuge tubes at 1000 rpm for 10 minutes. Each of the resulting pellets are resuspended in 10 mL of cold (4° C.) membrane buffer (25 mM HEPES, pH 7.4, 140 mM NaCl, 1.2 mM MgCl2, 2.5 mM CaCl2, 10 μG/mL Aprotinin, 10 μG/mL Leupeptin) and Dounce homogenized using 10-12 strokes. […] The resulting pellet is resuspended in cold membrane buffer in a total of ¼ of the original volume by vortexing and aspiration using a syringe and 27 gauge needle. Protein content is determined (Bradford, Bio-Rad Protein Assay). Membranes are aliquoted in microcentrifuge tubes and quick frozen in liquid nitrogen. Store at −80° C. until use. The membrane binding buffer is composed of 25 mM HEPES, pH 7.4, 140 mM NaCl, 1.2 mM MgCl2, 2.5 mM CaCl2, 0.1% BSA. […] The mixture is filtered with Brandel Microplate 96 filter apparatus using 96-well GF/B filter presoaked in 1-% polyethyleneimine (Sigma). The filter is washed (4 times with a total of 1 mL per well) with cold wash buffer consisting of 20 mM HEPES, pH 7.4, 5 mM MgCl2. […] 100 μl of Wallac Optiphase Supermix scintillation fluid is added to each well. The top is sealed and the plates are shaken to insure that the filters are thoroughly soaked with fluid. […] Dose-response curves are fitted by […] analyses and IC50 values are calculated using ExcelFit.

The mark [1] stands for this setting: at 10 μM, [125I]NDP-α-MSH displacement.

T1 sequence (P32245 whole entry): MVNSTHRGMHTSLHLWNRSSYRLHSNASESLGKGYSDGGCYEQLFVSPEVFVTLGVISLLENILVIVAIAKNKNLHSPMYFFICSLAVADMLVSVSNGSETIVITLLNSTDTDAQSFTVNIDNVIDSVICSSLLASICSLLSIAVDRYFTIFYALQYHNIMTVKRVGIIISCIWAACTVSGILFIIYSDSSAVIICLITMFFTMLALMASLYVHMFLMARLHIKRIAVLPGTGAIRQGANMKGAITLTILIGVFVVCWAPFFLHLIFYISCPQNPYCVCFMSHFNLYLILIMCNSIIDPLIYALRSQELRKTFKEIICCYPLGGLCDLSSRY

Take `Cc1ccc(-c2ccc(C[C@H](N)C(=O)N3CCN(Cc4cccc(Cl)c4Cl)CC3)cc2)cc1` [Example 290]: the IC50 was less than 1500 nM. For the same molecule, the inhibition at 10 µM under setting [1] fell in the range of 91 to 100%. The matching figures for `CCOc1ccc(CN2CCN(C(=O)[C@@H](N)Cc3ccc(OCc4ccccc4)cc3)CC2)c(OCC)c1C` [Example 104]: 1500 to 3000 nM and 91 to 100%. `N[C@@H](Cc1ccc(OCc2ccccc2Cl)cc1)C(=O)N1CCN(Cc2cccc(Cl)c2Cl)CC1` [Example 210]: the IC50 lay in the range of 1500 to 3000 nM. Besides, the “Displacement Rate (%) (at 10 μM)” value under setting [1] is on record as “+++ (+++ = 91-100)”. As for `N[C@@H](Cc1ccc(OCc2ccccc2)cc1)C(=O)N1CCCN(Cc2ccc(-c3ccccc3)cc2)CC1` [Example 8], the IC50 was in the range of 1500 to 3000 nM. For the same molecule, the inhibition at 10 µM under setting [1] lay in the range of 91 to 100%. Take `COc1ccc(-c2ccc(C[C@H](N)C(=O)N3CCN(Cc4cccc(Cl)c4Cl)CC3)cc2)cn1` [Example 343]: the inhibition at 10 µM was in the range of 35 to 70% and the IC50 was greater than 3000 nM. `Cc1ccc(S(=O)(=O)n2cc(CN3CCCN(C(=O)[C@@H](N)Cc4ccc(OCc5ccccc5)cc4)CC3)c3ccccc32)cc1` [Example 18]: the IC50 was less than 1500 nM. For the same molecule, the inhibition at 10 µM under setting [1] was 91 to 100%.

Turning to `CC(C)N1CCN(C(=O)[C@@H](N)Cc2ccc(OCc3ccccc3)cc2)CC1` [Example 143], the half-inhibitory concentration (IC50) was greater than 3000 nM. For the same molecule, the inhibition at 10 µM under setting [1] was in the range of 35 to 70%. On to `COc1ccc(COc2ccc(C[C@H](N)C(=O)N3CCN(Cc4cccc(Cl)c4Cl)CC3)cc2)cc1` [Example 225], for which the half-inhibitory concentration (IC50) was greater than 3000 nM. Moreover, the “Displacement Rate (%) (at 10 μM)” value under setting [1] was “++ (++ = 71-90)”. As to `N[C@@H](Cc1ccc(OCCc2cccc(Cl)c2)cc1)C(=O)N1CCN(Cc2cccc(Cl)c2Cl)CC1` [Example 249], the IC50 is less than 1500 nM. Further, under setting [1], the “Displacement Rate (%) (at 10 μM)” value is given as “+++ (+++ = 91-100)”. On to `CC(CCOc1ccc(C[C@H](N)C(=O)N2CCN(Cc3cccc(Cl)c3Cl)CC2)cc1)c1ccccc1` (stereo partly shown) [Example 263], for which the IC50 was less than 1500 nM. Under setting [1], the “Displacement Rate (%) (at 10 μM)” value is recorded as “+++ (+++ = 91-100)”. Consider `N[C@@H](Cc1ccc(-c2ccc(Cl)cc2)cc1)C(=O)N1CCN(Cc2cccc(Cl)c2Cl)CC1` [Example 298], for which the IC50 was less than 1500 nM. For the same molecule, the inhibition at 10 µM under setting [1] was in the range of 91 to 100%.

Turning to `CC(C)CN1CCN(C(=O)[C@@H](N)Cc2ccc(OCc3ccccc3)cc2)CC1` [Example 146], the IC50 is greater than 3000 nM. In addition, the inhibition at 10 µM under setting [1] is 35 to 70%. Turning to `CCCCN[C@@H](Cc1ccc(OCc2ccccc2)cc1)C(=O)N1CCN(Cc2cccc(Cl)c2Cl)CC1` [Example 169], the IC50 was less than 1500 nM. Under setting [1], the inhibition at 10 µM lay within 91 to 100%. The matching figures for `CCc1ccc(CN2CCCN(C(=O)[C@@H](N)Cc3ccc(OCc4ccccc4)cc3)CC2)s1` [Example 45]: greater than 3000 nM and 35 to 70%.

With `CC1CCC(N2CCCN(C(=O)[C@@H](N)Cc3ccc(OCc4ccccc4)cc3)CC2)CC1` (stereo partly shown) [Example 74], the IC50 is greater than 3000 nM. Besides, under setting [1], the inhibition at 10 µM was 35 to 70%. As to `N[C@@H](Cc1ccc(OCc2ccccc2)cc1)C(=O)N1CCCN(Cc2c3ccccc3cc3ccccc23)CC1` [Example 20], the inhibition at 10 µM was in the range of 91 to 100% and the IC50 was greater than 3000 nM. `CC(C)c1ccc(COc2ccc(C[C@H](N)C(=O)N3CCN(Cc4cccc(Cl)c4Cl)CC3)cc2)cc1` [Example 195]: the IC50 is less than 1500 nM. The “Displacement Rate (%) (at 10 μM)” value under setting [1] is listed as “+++ (+++ = 91-100)”. The matching figures for `N[C@@H](Cc1ccc(OCc2ccccc2Br)cc1)C(=O)N1CCN(Cc2cccc(Cl)c2Cl)CC1` [Example 179]: less than 1500 nM and “+++ (+++ = 91-100)”. For the molecule `CC(C)(C)c1cc(CN2CCN(C(=O)[C@@H](N)Cc3ccc(OCc4ccccc4)cc3)CC2)cc(C(C)(C)C)c1O` [Example 92], the IC50 was less than 1500 nM. Under setting [1], the inhibition at 10 µM lay within 91 to 100%.

`N[C@@H](Cc1ccc(OCc2ccccc2C(F)(F)F)cc1)C(=O)N1CCN(Cc2cccc(Cl)c2Cl)CC1` [Example 182]: the IC50 is less than 1500 nM. For the same molecule, the “Displacement Rate (%) (at 10 μM)” value under setting [1] is “+++ (+++ = 91-100)”. On to `Cc1ccc(C)c(CN2CCCN(C(=O)[C@@H](N)Cc3ccc(OCc4ccccc4)cc3)CC2)c1` [Example 36], for which the IC50 was greater than 3000 nM. The inhibition at 10 µM under setting [1] fell in the range of 71 to 90%.

`N[C@@H](Cc1ccc(Oc2ccc(Cl)c(Cl)c2)cc1)C(=O)N1CCN(Cc2cccc(Cl)c2Cl)CC1` [Example 346]: the IC50 lay within 1500 to 3000 nM. On to `CCCCCCCN1CCN(C(=O)[C@@H](N)Cc2ccc(OCc3ccccc3)cc2)CC1` [Example 122], for which the IC50 lay within 1500 to 3000 nM. In addition, the inhibition at 10 µM under setting [1] lay within 71 to 90%. Take `N[C@@H](Cc1ccc(OCc2ccccc2)cc1)C(=O)N1CCN(Cc2ccc3c(c2)Cc2ccccc2-3)CC1` [Example 83]: the half-maximal inhibitory concentration (IC50) is less than 1500 nM. Moreover, under setting [1], the inhibition at 10 µM lay in the range of 91 to 100%.

For `N[C@@H](Cc1ccc(OCc2ccccc2)cc1)C(=O)N1CCCN(Cc2cc3c(cc2Cl)OCO3)CC1` [Example 71], the inhibition at 10 µM fell in the range of 35 to 70% and the IC50 is greater than 3000 nM.

Turning to `CCCCc1ccc(CN2CCCN(C(=O)[C@@H](N)Cc3ccc(OCc4ccccc4)cc3)CC2)cc1` [Example 35], the IC50 was 1500 to 3000 nM. In addition, the inhibition at 10 µM under setting [1] lay within 71 to 90%. The matching figures for `N[C@@H](Cc1ccc(OCc2ccccc2)cc1)C(=O)N1CCN(Cc2cccc(OCc3ccccc3)c2)CC1` [Example 85]: less than 1500 nM and 91 to 100%.

Consider `Cc1ccccc1CCOc1ccc(C[C@H](N)C(=O)N2CCN(Cc3cccc(Cl)c3Cl)CC2)cc1` [Example 237], for which the IC50 is less than 1500 nM. Moreover, the “Displacement Rate (%) (at 10 μM)” value under setting [1] is reported as “+++ (+++ = 91-100)”.

As for `N[C@@H](Cc1ccc(OCc2ccccc2)cc1)C(=O)N1CCN(Cc2c3ccccc3cc3ccccc23)CC1` [Example 100], the inhibition at 10 µM fell in the range of 91 to 100% and the IC50 was in the range of 1500 to 3000 nM.

Take `N[C@@H](Cc1ccc(OCc2ccccc2)cc1)C(=O)N1CCN(Cc2ccc(/C=C/c3ccccc3)cc2)CC1` [Example 88]: the IC50 was less than 1500 nM. Under setting [1], the inhibition at 10 µM fell in the range of 91 to 100%. In the case of `CCN[C@@H](Cc1ccc(OCc2ccccc2)cc1)C(=O)N1CCN(Cc2cccc(Cl)c2Cl)CC1` [Example 166], the IC50 is less than 1500 nM. For the same molecule, under setting [1], the inhibition at 10 µM was 91 to 100%. `N[C@@H](Cc1ccc(OCc2ccccc2)cc1)C(=O)N1CCN(Cc2ccc(Cl)c([N+](=O)[O-])c2)CC1` [Example 114]: the inhibition at 10 µM fell in the range of 71 to 90% and the IC50 was greater than 3000 nM. On to `N[C@@H](Cc1ccc(OCc2ccccc2)cc1)C(=O)N1CCN(Cc2ccc(F)cc2F)CC1` [Example 153], for which the IC50 is greater than 3000 nM. In addition, under setting [1], the inhibition at 10 µM was in the range of 35 to 70%. On to `N[C@@H](Cc1ccc(OCc2ccccc2)cc1)C(=O)N1CCN(CC(c2ccccc2)c2ccccc2)CC1` [Example 102], for which the IC50 lay within 1500 to 3000 nM. Further, the inhibition at 10 µM under setting [1] lay within 91 to 100%. The matching figures for `O=C([C@H](Cc1ccc(OCc2ccccc2)cc1)NCCc1ccccc1)N1CCN(Cc2cccc(Cl)c2Cl)CC1` [Example 171]: greater than 3000 nM and 71 to 90%. The matching figures for `COc1cc(CN2CCN(C(=O)[C@@H](N)Cc3ccc(OCc4ccccc4)cc3)CC2)ccc1OCc1ccccc1` [Example 115]: greater than 3000 nM and 71 to 90%. For `CN(C)CCCN[C@@H](Cc1ccc(OCc2ccccc2)cc1)C(=O)N1CCN(Cc2cccc(Cl)c2Cl)CC1` [Example 174], the IC50 was less than 1500 nM. The inhibition at 10 µM under setting [1] was 91 to 100%.

As to `N[C@@H](Cc1ccc(-c2cccc([N+](=O)[O-])c2)cc1)C(=O)N1CCN(Cc2cccc(Cl)c2Cl)CC1` [Example 330], the IC50 is greater than 3000 nM. Also, the inhibition at 10 µM under setting [1] was 71 to 90%. The matching figures for `CCc1ccc(CN2CCN(C(=O)[C@@H](N)Cc3ccc(OCc4ccccc4)cc3)CC2)cc1` [Example 135]: greater than 3000 nM and 35 to 70%.

Consider `CCCN[C@@H](Cc1ccc(OCc2ccccc2)cc1)C(=O)N1CCN(Cc2cccc(Cl)c2Cl)CC1` [Example 167], for which the IC50 was less than 1500 nM. The inhibition at 10 µM under setting [1] is 91 to 100%. As for `N[C@@H](Cc1ccc(OCc2c(F)cccc2Cl)cc1)C(=O)N1CCN(Cc2cccc(Cl)c2Cl)CC1` [Example 222], the IC50 was in the range of 1500 to 3000 nM. The “Displacement Rate (%) (at 10 μM)” value under setting [1] is on record as “+++ (+++ = 91-100)”. Take `N[C@@H](Cc1ccc(OCc2ccccc2)cc1)C(=O)N1CCN(Cc2ccco2)CC1` [Example 151]: the IC50 is greater than 3000 nM. Besides, the inhibition at 10 µM under setting [1] was 35 to 70%.

On to `Cc1ccc(CCOc2ccc(C[C@H](N)C(=O)N3CCN(Cc4cccc(Cl)c4Cl)CC3)cc2)cc1` [Example 239], for which the IC50 is less than 1500 nM. Also, the “Displacement Rate (%) (at 10 μM)” value under setting [1] is given as “+++ (+++ = 91-100)”.
